Assays:
Assay type in all cases: biochemical
EGFR = molecular target: T1, EGFR (Homo sapiens, UniProt P00533); assay: EGFR Kinase Assay; conditions: for inhibition at 2 µM: test concentration of 2 μM, compounds without an IC50, read-out: EGFR inhibition in percent; for IC50: GST-EGFR, ATP 5 μM
T1 construct: The intracellular portion of EGFR started at nucleotide 2189 (corresponding to amino acid 667) and ended at the termination codon; made in house; host or cells: Sf9 insect cells (baculovirus)
T1 sequence (P00533 669-1210 limits assumed): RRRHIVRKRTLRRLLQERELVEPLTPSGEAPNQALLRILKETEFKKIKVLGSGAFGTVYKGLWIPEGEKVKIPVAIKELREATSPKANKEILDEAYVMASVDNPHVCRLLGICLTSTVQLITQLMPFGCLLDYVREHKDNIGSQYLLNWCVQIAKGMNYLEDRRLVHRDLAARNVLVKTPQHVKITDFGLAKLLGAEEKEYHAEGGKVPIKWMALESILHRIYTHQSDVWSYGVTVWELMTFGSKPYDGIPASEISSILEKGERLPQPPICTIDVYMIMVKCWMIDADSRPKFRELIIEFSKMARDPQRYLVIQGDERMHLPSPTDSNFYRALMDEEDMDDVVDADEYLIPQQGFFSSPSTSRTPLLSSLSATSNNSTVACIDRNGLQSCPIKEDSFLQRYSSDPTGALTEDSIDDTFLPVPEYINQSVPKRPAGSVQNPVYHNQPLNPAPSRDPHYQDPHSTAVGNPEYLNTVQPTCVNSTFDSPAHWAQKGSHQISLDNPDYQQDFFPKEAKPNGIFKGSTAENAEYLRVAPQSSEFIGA
Procedure, shortened: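 Potency came from triplicate 16-point half-log titrations starting at 200 uM, with IC50 fitted from % inhibition against log concentration, or % inhibition at 2 μM otherwise. Reaction: Sf9-made GST–EGFR cytoplasmic region (aa 667 onward), biotin-polyGluTyr, 5 μM ATP with 33P tracer, pH 8.0 Tris/Mg/vanadate/DTT, 30 °C for 1 h; captured on streptavidin Flashplates and counted.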

c-Src kinase (human) = molecular target: T2, c-Src kinase (human) (Homo sapiens, UniProt P12931); assay: c-Src Kinase Assay; conditions: test concentration of 2 μM; multiple values are separate assay results
T2 construct: purchased Upstate Biotechnology, Lake Placid, N.Y
T2 sequence (P12931 whole entry): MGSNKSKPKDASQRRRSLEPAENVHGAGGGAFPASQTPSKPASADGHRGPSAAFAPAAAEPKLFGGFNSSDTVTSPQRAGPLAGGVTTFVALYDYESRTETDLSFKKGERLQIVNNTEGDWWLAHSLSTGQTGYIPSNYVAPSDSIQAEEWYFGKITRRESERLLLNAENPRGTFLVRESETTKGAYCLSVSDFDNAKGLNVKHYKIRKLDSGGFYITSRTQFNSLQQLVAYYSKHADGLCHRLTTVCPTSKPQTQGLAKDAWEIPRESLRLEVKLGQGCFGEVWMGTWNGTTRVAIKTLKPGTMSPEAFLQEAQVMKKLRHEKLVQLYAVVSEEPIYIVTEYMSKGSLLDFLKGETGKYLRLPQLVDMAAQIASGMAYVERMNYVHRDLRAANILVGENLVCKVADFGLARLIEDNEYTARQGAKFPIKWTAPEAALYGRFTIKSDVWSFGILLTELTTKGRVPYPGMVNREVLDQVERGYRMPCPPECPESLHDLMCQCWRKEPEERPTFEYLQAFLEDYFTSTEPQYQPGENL
Procedure, shortened: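 Inhibition was read as 33P incorporation, counted on P30 filtermats, after a 40 min, 30° C reaction. Human c-Src acted on 100 μM Cdc2 peptide with 5 μM ATP (final), pH 7.0 MOPS/MgCl2. Values are percent inhibition at 2 μM compound, or IC50 where determined.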

Lyn kinase (human) = molecular target: T3, Lyn kinase (human) (Homo sapiens, UniProt P07948); assay: Lyn Kinase Assay; conditions: test concentration of 2 μM
T3 construct: purchased Upstate Biotechnology, Lake Placid, N.Y
T3 sequence (P07948 whole entry): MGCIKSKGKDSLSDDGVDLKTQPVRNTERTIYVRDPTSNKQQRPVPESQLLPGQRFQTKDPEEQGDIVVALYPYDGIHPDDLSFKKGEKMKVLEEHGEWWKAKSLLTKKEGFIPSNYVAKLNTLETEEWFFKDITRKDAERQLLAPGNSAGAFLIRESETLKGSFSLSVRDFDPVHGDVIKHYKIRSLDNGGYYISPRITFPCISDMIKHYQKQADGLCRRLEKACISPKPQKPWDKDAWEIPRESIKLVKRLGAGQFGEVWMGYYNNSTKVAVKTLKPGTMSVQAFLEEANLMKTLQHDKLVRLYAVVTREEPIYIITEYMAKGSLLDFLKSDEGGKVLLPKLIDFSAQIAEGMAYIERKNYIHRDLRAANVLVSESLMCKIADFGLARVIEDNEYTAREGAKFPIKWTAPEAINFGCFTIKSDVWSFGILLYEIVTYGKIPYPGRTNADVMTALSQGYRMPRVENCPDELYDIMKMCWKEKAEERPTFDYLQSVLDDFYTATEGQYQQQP
Experimental: A mixture of a 10× kinase buffer (500 mM MOPS at pH 7.5, 1 mM EGTA, 1 mM Sodium Vanadate, 1% β-mercaptoethanol and 100 mM Magnesium Acetate), ATP (5 μM final from a 10 mM stock), polyGluTyr (0.1 mg/mL final from a 1 mg/mL stock), γ-^33P ATP (10 μCl/μL stock) and water (for a total of 20 μL/well) was added to each well of a Streptavidin Flashplate.
Test compound in 100% DMSO (0.5 μL) was added to the appropriate wells. Diluted Lyn kinase (human)(Accession Number EMBL M16038) (Upstate Biotechnology, Lake Placid, N.Y.) (diluted in a buffer consisting of 50 mM Tris at pH 7.5, 0.1 mM EGTA, Sodium Vanadate (0.1 mM), β-mercaptoethanol (0.1%) and 1 mg/mL bovine serum albumin) (2.5 μL) was added to the wells to initiate the reactions.
The reaction plates were incubated at 30° C. for 40 min. The reaction was terminated by the addition of a 3% phosphoric acid solution (5 μL). The reaction product (10 μL) was spotted onto a P30 filtermat and washed for 5 minutes in phosphoric acid (75 mM). The wash sequence was repeated two more times, followed with one final wash in methanol. The plates were then dried, sealed and read on the TopCount scintillation counter after adding 30 μL scintillation fluid.
The Lyn inhibition values were derived according to the procedure described in Example 164 and are shown as percent in Table 3 at a test concentration of 2 μM. For those compounds with an IC50, the IC50 value in μM is shown in parentheses. For compounds with multiple test values, each value represents a separate assay result.

HER-2 = molecular target: T4, HER-2 (Homo sapiens, UniProt P04626); assay: HER-2 Kinase Assay; conditions: for inhibition at 1 µM: test concentration of 1 μM; for IC50: value in parentheses
T4 construct: His6 with thrombin site (N); purchased Proqinase (Freiburg, Germany)
T4 sequence (P04626 679-1255): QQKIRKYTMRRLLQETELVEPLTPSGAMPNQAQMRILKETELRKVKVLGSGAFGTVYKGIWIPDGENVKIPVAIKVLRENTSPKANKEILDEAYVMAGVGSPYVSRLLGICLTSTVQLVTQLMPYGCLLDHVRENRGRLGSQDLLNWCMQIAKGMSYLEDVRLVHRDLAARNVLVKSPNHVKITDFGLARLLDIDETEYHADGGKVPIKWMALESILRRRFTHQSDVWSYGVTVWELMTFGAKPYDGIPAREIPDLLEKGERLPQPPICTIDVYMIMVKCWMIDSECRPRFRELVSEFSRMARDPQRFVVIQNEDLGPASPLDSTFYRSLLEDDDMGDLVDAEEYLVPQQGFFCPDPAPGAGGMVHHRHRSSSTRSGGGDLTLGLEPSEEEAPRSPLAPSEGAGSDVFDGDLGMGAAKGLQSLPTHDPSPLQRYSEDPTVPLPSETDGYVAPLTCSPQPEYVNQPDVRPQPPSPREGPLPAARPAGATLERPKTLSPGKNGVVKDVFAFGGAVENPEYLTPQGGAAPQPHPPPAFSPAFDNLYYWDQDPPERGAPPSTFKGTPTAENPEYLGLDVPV
Procedure, shortened: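 Read-out was scintillation counting of 33P incorporated into biotinylated polyGluTyr captured on streptavidin plates. Reactions ran 1 h at 30 °C with GST-fused HER-2 residues 679–1255, 1 μM ATP, Mn2+ and Mg2+ at pH 7.5; data given as percent inhibition at 1 μM, with IC50 where determined.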

inhibition at 2 µM (EGFR)	inhibition at 2 µM (c-Src kinase (human))	inhibition at 2 µM (Lyn kinase (human))	inhibition at 1 µM (HER-2)	IC50 (EGFR)	IC50 (HER-2)	SMILES
–	-5%	0%	–	1080 nM	11700 nM	COc1ccc(N2C(=O)Nc3c(C(=O)Nc4ccc(CCN5CCCCC5)cc4)sc4ncnc2c34)cc1Cl [Cpd 120, 5-(3-chloro-4-methoxy-phenyl)-4-oxo-4,5-dihydro-3H-1-thia-3,5,6,8-tetraaza-acenaphthylene-2-carboxylic acid [4-(2-piperidin-1-yl-ethyl)-phenyl]-amide]
–	-1%	-13%	–	344 nM	3520 nM	COc1ccc(N2C(=O)Nc3c(C(=O)Nc4ccc(CN5CCCCC5)cc4)sc4ncnc2c34)cc1Cl [Cpd 121, 5-(3-chloro-4-methoxy-phenyl)-4-oxo-4,5-dihydro-3H-1-thia-3,5,6,8-tetraaza-acenaphthylene-2-carboxylic acid (4-piperidin-1-ylmethyl-phenyl)-amide]
–	-9%	3%	–	222 nM	1440 nM	COc1ccc(N2C(=O)Nc3c(C(=O)Nc4ccc(CN5CCOCC5)cc4)sc4ncnc2c34)cc1Cl [Cpd 122, 5-(3-chloro-4-methoxy-phenyl)-4-oxo-4,5-dihydro-3H-1-thia-3,5,6,8-tetraaza-acenaphthylene-2-carboxylic acid (4-morpholin-1-ylmethyl-phenyl)-amide]
9%	30%	18%	–	–	> 100000 nM	O=C(Nc1ccc(CN2CCCCC2)cc1)c1sc2ncnc3c2c1NC(=O)N3c1ccc(N2CCOCC2)cc1 [Cpd 124, 5-(4-morpholin-4-yl-phenyl)-4-oxo-4,5-dihydro-3H-1-thia-3,5,6,8-tetraaza-acenaphthylene-2-carboxylic acid (4-piperidin-1-ylmethyl-phenyl)-amide]
20%	5%	21%	–	–	> 100000 nM	O=C(Nc1ccc(N2CCOCC2)cc1)c1sc2ncnc3c2c1NC(=O)N3c1ccc(N2CCOCC2)cc1 [Cpd 125, 5-(4-morpholin-4-yl-phenyl)-4-oxo-4,5-dihydro-3H-1-thia-3,5,6,8-tetraaza-acenaphthylene-2-carboxylic acid (4-morpholin-4-yl-phenyl)-amide]
3%	-4%	19%	–	–	> 100000 nM	CC(C)(C)OC(=O)N1CCC(NC(=O)c2sc3ncnc4c3c2NC(=O)N4c2ccc(N3CCOCC3)cc2)CC1 [Cpd 126, 4-{[5-(4-morpholin-4-yl-phenyl)-4-oxo-4,5-dihydro-3H-1-thia-3,5,6,8-tetraaza-acenaphthylene-2-carbonyl]-amino}-piperidine-1-carboxylic acid tert-butyl ester]
0.5%	-2%	25%	–	–	> 100000 nM	O=C(NCc1ccco1)c1sc2ncnc3c2c1NC(=O)N3c1ccc(N2CCOCC2)cc1 [Cpd 127, 5-(4-morpholin-4-yl-phenyl)-4-oxo-4,5-dihydro-3H-1-thia-3,5,6,8-tetraaza-acenaphthylene-2-carboxylic acid (furan-2-ylmethyl)-amide]

More lines, now with the values behind:

SMILES	inhibition at 2 µM (EGFR)	inhibition at 2 µM (c-Src kinase (human))	inhibition at 2 µM (Lyn kinase (human))	inhibition at 1 µM (HER-2)	IC50 (EGFR)	IC50 (HER-2)
CN(Cc1ccc(NC(=O)c2sc3ncnc4c3c2NC(=O)N4c2cc(OCc3cccc(F)c3)c(Cl)cc2Cl)cc1)C[C@H]1CCCO1 [Cpd 59, 5-[2,4-dichloro-5-(3-fluoro-benzyloxy)-phenyl]-4-oxo-4,5-dihydro-3H-1-thia-3,5,6,8-tetraaza-acenaphthylene-2-carboxylic acid [4-({methyl-[(2R)-tetrahydro-furan-2-ylmethyl]-amino}-methyl)-phenyl]-amide]	20%	-13%	8%	-18%	–	–
CN1CCN(Cc2ccc(NC(=O)c3sc4ncnc5c4c3NC(=O)N5c3cc(OCc4cccc(F)c4)c(Cl)cc3Cl)cc2)CC1 [Cpd 61, 5-[2,4-dichloro-5-(3-fluoro-benzyloxy)-phenyl]-4-oxo-4,5-dihydro-3H-1-thia-3,5,6,8-tetraaza-acenaphthylene-2-carboxylic acid [4-(4-methyl-piperazin-1-ylmethyl)-phenyl]-amide]	9%	-2%	30%	-11%	–	–
COc1ccc(N2C(=O)Nc3c(C(=O)Nc4ccc(CN5CCOCC5)cc4)sc4ncnc2c34)c(F)c1 [Cpd 65, 5-(2-fluoro-4-methoxy-phenyl)-4-oxo-4,5-dihydro-3H-1-thia-3,5,6,8-tetraaza-acenaphthylene-2-carboxylic acid (4-morpholin-4-ylmethyl-phenyl)-amide]	–	-9%	17.8%	58%	120 nM	643 nM
COc1ccc(N2C(=O)Nc3c(C(=O)Nc4ccc(OCCN5CCOCC5)c(OC)c4)sc4ncnc2c34)c(F)c1 [Cpd 67, 5-(2-fluoro-4-methoxy-phenyl)-4-oxo-4,5-dihydro-3H-1-thia-3,5,6,8-tetraaza-acenaphthylene-2-carboxylic acid [3-methoxy-4-(2-morpholin-4-yl-ethoxy)-phenyl]-amide]	–	-17%	22.5%	51%	103 nM	965 nM
O=C(NCCN1CCOCC1)c1sc2ncnc3c2c1NC(=O)N3c1ccc(Oc2ccccc2)cc1 [Cpd 105, 4-oxo-5-(4-phenoxy-phenyl)-4,5-dihydro-3H-1-thia-3,5,6,8-tetraaza-acenaphthylene-2-carboxylic acid (2-morpholin-4-yl-ethyl)-amide]	–	12%	-3%	–	110 nM	3150 nM
O=C(NCCCO)c1sc2ncnc3c2c1NC(=O)N3c1ccc(Oc2ccccc2)cc1 [Cpd 106, 4-oxo-5-(4-phenoxy-phenyl)-4,5-dihydro-3H-1-thia-3,5,6,8-tetraaza-acenaphthylene-2-carboxylic acid (3-hydroxy-propyl)-amide]	–	30%	27%	–	42 nM	771 nM
O=C(O)c1sc2ncnc3c2c1NC(=O)N3c1ccc(Oc2ccccc2)c(F)c1 [Cpd 112, 5-(3-fluoro-4-phenoxy-phenyl)-4-oxo-4,5-dihydro-3H-1-thia-3,5,6,8-tetraaza-acenaphthylene-2-carboxylic acid]	–	-16%	30%	–	1030 nM	5060 nM
CN1CCN(Cc2ccc(NC(=O)c3sc4ncnc5c4c3NC(=O)N5c3ccc(Oc4ccccc4)c(F)c3)cc2)CC1 [Cpd 115, 5-(3-fluoro-4-phenoxy-phenyl)-4-oxo-4,5-dihydro-3H-1-thia-3,5,6,8-tetraaza-acenaphthylene-2-carboxylic acid [4-(4-methyl-piperazin-1-ylmethyl)-phenyl]-amide]	–	-1%	51.2%	–	42 nM	182 nM
Cc1ccc(Oc2ccc(N3C(=O)Nc4c(C(=O)Nc5ccc(CN6CCOCC6)cc5)sc5ncnc3c45)cc2C)cn1 [Cpd 119, 5-[3-methyl-4-(6-methyl-pyridin-3-yloxy)-phenyl]-4-oxo-4,5-dihydro-3H-1-thia-3,5,6,8-tetraaza-acenaphthylene-2-carboxylic acid (4-morpholin-4-ylmethyl-phenyl)-amide]	–	-17%	-47%	–	1800 nM	1090 nM

— patent US7579356B2, “Thia-tetraazaacenaphthylene kinase inhibitors” (Janssen Pharmaceutica NV, priority 2005, dated 2009)
